The record followed here is patent publication US10821106B2, “Composition and methods of use of novel phenylalanine small organic compounds to directly modulate PCSK9 protein activity” (SRX Cardio, LLC, priority 2015, dated 2020).

In experiment [1] the target is T1, recombinant PCSK9 (Homo sapiens, UniProt Q8NBP7). The experiment can be described thus: LDLR Flow / FACS Assay in HuH7 cells. To be noted: 5.0 ug/mL PCSK9, 6 h, read-out: LDLR Flow Assay: % Inhibition of 5.0 ug/mL recombinant PCSK9 @ X compound dose; for inhibition at 1.25 µM: Huh-7, 1.25 uM compound. It counts as cell-based. The protocol: The cells were incubated in 24-well plates for a total of 6 h in the absence or presence of recombinant PCSK9 protein (final concentration of 5.0 ug/ml), or in the presence of PCSK9 protein mixed with indicated concentration of experimental compound (Cmpd #). After 6 hours, the cells were released from the plate, stained with anti-LDLR antibody, then rinsed, counterstained with DAPI, and then measured by fluorescence activated cell sorting (FACS). The percent recombinant PCSK9 inhibition was calculated as [‘Compound Dose LDLR Fluorescence’-‘5.0 ug/ml PCSK9-treated LDLR Fluorescence’]/[‘No PCSK9 Basal LDLR Fluorescence’-‘5.0 ug/ml PCSK9-treated LDLR Fluorescence’]×100%.
LDLR levels can be measured using flow cytometry or fluorescence activated cell sorting (FACS) using protocols adapted from Benjannet et al., “Effects of the prosegment and pH on the activity of PCSK9: evidence for additional processing events” J Biol Chem. 285(52): 40965-40978 (2010) and “Composition and Methods of Use of Small Molecules as Binding Ligands for the Modulation of Proprotein Convertase Subtilisin/Kexin Type 9 (PCSK9) Protein Activity” (WO2016029037), which are incorporated by reference in their entirety.
Cells, such as HepG2, HuH7, FL83B, or a cell line transfected with a short-hairpin PCSK9 knockdown sequence such as HepG2/shPCSK9, HuH7/shPCSK9, or FL83B/shPCSK9 are plated and cultured at 37° C. for 12-24 h. Culture media is removed and replaced with fresh culture media or culture media plus a predetermined amount of recombinant PCSK9, for example a 10 nM final concentration of PCSK9. Cell culture media can be composed of DMEM (Invitrogen) with 10% fetal bovine serum (Life Technologies) supplemented with penicillin-streptomycin (Life Technologies). Cells are dosed with small molecule test compounds at doses ranging from 0 nM to 100 uM […]
Cells are analyzed for both cell viability marker (dead cells) and LDLR in live cells using a flow cytometer per the manufacturer's operating manual. […]

In experiment [2] the target is T1, recombinant PCSK9. The experiment can be described thus: DiI-LDL Uptake Assay in HepG2 cells. The following applies: 2.5 ug/mL PCSK9, DiI-LDL 5 ug/ml, read-out: Uptake Assay: % Inhibition of 2.5 ug/mL recombinant PCSK9 @ X compound dose; for inhibition at 1.25 µM: 1.25 uM compound. It counts as cell-based. The protocol: The cells were incubated in a 96-well plate for a total of 16 h in the absence or presence of recombinant PCSK9 (final concentration 2.5 ug/ml) protein alone or recombinant PCSK9 protein pre-mixed with indicated concentration of experimental compounds (Cmpd #). After 16 h, DiI-LDL (final concentration 5 ug/ml) was added to the incubation mixtures. After 4 h, cells are stained with Hoechst 33342 for 30 minutes, then rinsed with phosphate buffered saline, and then a final volume of 100 ul phosphate buffered saline was added to each well. The fluorescence was measured (DiI: excitation at 550 nm and emission at 590 nm; Hoechst: excitation at 355 nm, emission at 460 nm). The percent recombinant PCSK9 inhibition was calculated as [‘Compound Dose DiI Fluorescence’-‘2.5 ug/ml PCSK9-treated DiI Fluorescence’]/[‘No PCSK9 DiI Fluorescence’-‘2.5 ug/ml PCSK9-treated DiI Fluorescence’]×100%.
Cellular DiI-LDL uptake can be measured using protocols adapted from Benjannet et al., “Effects of the prosegment and pH on the activity of PCSK9: evidence for additional processing events” J Biol Chem. 285(52): 40965-40978 (2010) and “Composition and Methods of Use of Small Molecules as Binding Ligands for the Modulation of Proprotein Convertase Subtilisin/Kexin Type 9 (PCSK9) Protein Activity” (WO2016029037), which are incorporated by reference in their entirety.
Cells, such as HepG2, HuH7, FL83B, or a cell line transfected with a short-hairpin PCSK9 knockdown sequence such as HepG2/shPCSK9, HuH7/shPCSK9, or FL83B/shPCSK9 are plated and cultured at 37° C. for 12-24 h. Culture media is removed and replaced with fresh lipoprotein-depleted culture media supplemented with 5 ug/mL of DiI-LDL (Kalen Biomedical) or lipoprotein-depleted culture media supplemented with 5 ug/mL of DiI-LDL plus a predetermined concentration of recombinant PCSK9, for example a 10 nM final concentration of PCSK9. Lipoprotein-depleted culture media can be composed of DMEM (Invitrogen) with 10% lipoprotein-depleted fetal bovine serum (Kalen Biomedical) and supplemented with penicillin-streptomycin (Life Technologies). Cells are dosed with small molecule test compounds at doses ranging from 0 nM to 100 uM.
Following an incubation period of specified length, such as 6 hours, Hoechst 33342 (AnaSpec) stain is added to the cell media per manufacturer's instructions and incubated for a specified length (e.g., 30 minutes). The lipoprotein-depleted media is removed and cells rinsed three times with phosphate buffered saline. A final volume of phosphate buffered saline is added back to the wells. The DiI fluorescence is measured with a plate reader using an exciting wavelength of 550 nm and the resulting emission at 590 nm is measured. The Hoechst stain fluorescence is measured with a plate reader using an exciting wavelength of 355 nm and the resulting emission at 460 nm is measured.
Cells are analyzed by for both Hoechst stain (DNA content) and DiI-LDL fluorescence. Cells incubated with small molecule compounds that are inhibitors of PCSK9 will be expected to show increased amounts of DiI-LDL fluorescence, relative to control (no compound) specimens, and cells incubated with small molecule compounds that are activators of PCSK9 will be expected to show decreased amounts of DiI-LDL fluorescence relative to control (no compound) specimens.

Bounds are passed on as bounds.

T1 sequence (Q8NBP7 153-692): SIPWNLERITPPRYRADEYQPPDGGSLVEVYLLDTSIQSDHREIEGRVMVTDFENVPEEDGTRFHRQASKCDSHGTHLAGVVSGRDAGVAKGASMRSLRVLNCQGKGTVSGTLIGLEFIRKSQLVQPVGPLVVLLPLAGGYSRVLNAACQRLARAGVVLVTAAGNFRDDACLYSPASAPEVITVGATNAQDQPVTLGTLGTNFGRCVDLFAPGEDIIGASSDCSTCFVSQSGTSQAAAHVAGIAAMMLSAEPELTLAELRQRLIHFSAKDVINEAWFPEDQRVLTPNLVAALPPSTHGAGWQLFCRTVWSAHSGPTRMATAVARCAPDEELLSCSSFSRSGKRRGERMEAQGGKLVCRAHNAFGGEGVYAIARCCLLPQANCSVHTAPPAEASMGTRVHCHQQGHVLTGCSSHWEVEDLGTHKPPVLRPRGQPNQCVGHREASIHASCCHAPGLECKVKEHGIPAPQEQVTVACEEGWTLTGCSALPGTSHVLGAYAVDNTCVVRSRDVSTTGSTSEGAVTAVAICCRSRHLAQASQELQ

Turning to `CC(C)NC(=O)[C@@H](N)Cc1ccc(-c2ccccc2)cc1` [Compound 1, (S)-3-([1,1′-biphenyl]-4-yl)-2-amino-N-isopropylpropanamide], the inhibition at 1.25 µM at recombinant PCSK9 [1] and at recombinant PCSK9 [2] was about 15% in each case. The inhibition at 10 µM on recombinant PCSK9 [1] (Huh-7, 10 uM compound) is about 55%; on recombinant PCSK9 [2] (10 uM compound), over 100%.
As to `CC(C)NC(=O)[C@@H](N)Cc1ccc(-c2cc[nH]c(=O)c2)cc1` [Compound 2, (S)-2-amino-N-isopropyl-3-(4-(2-oxo-1,2-dihydropyridin-4-yl)phenyl)propanamide], the inhibition at 1.25 µM on recombinant PCSK9 [2] was about 40%.
On the same count and under the same terms, next, `CC(C)NC(=O)[C@@H](N)Cc1ccc(-c2cccc(O)c2)cc1` [Compound 3, (S)-2-amino-3-(3′-hydroxy-[1,1′-biphenyl]-4-yl)-N-isopropylpropanamide]: about 44%.
As to `Cc1cc(C[C@H](N)C(=O)NC(C)C)ccc1-c1cccc(O)c1` [Compound 4, (S)-2-amino-3-(3′-hydroxy-2-methyl-[1,1′-biphenyl]-4-yl)-N-isopropylpropanamide], the inhibition at 1.25 µM on recombinant PCSK9 [1] was about 10%; on recombinant PCSK9 [2], about 28%.
